Counter-ions that a name gives are not always drawn. Active and inactive are the calls of the source.
Columns and labels:
[1] = target: Dual specificity tyrosine-phosphorylation-regulated kinase 1A (Rattus norvegicus, UniProt Q63470); type: biochemical, Homo sapiens
[2] = HeLa cell cytotoxicity, dose response, cytotoxicity control for MgcRacGAP inhibitor project (AID 624300); type: functional
[3] = target: T1, Rac GTPase-activating protein 1 (Homo sapiens, UniProt Q9H0H5); experiment: MgcRacGAP GTPase-activating activity inhibitors, confirmation, biochemical, ADP Hunter fluorescence, primary and confirmatory (AID 624330); type: functional
T1 sequence (Q9H0H5 whole entry): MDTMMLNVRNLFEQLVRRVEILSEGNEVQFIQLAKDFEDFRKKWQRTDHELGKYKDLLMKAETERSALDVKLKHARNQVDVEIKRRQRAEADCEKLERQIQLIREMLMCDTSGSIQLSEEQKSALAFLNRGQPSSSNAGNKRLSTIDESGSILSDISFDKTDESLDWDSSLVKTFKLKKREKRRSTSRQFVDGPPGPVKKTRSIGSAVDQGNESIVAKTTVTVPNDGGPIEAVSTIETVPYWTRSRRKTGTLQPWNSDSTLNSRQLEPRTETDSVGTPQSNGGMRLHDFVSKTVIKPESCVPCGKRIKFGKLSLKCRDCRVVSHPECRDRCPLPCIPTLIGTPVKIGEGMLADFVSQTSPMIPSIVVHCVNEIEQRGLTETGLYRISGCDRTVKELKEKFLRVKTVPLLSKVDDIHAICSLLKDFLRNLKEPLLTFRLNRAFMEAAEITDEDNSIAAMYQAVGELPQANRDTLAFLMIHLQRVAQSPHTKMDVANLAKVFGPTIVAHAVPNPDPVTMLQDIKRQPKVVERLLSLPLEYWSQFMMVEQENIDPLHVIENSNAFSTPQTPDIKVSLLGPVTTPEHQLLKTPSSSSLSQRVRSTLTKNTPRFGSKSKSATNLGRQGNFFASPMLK

[4] = target: Paired box protein Pax-8 (Homo sapiens, UniProt Q06710); experiment: inhibitors of PAX8-driven TPO luciferase reporter, dose response, RMG-I cells, cherry-pick (AID 687027); type: functional, cell-based;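 also: luciferase reporter driven by Pax8 target thyroperoxidase promoter measured by SteadyGlo luminescence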
Sequence of Paired box protein Pax-8 (Q06710 whole entry, the tested form may be a part): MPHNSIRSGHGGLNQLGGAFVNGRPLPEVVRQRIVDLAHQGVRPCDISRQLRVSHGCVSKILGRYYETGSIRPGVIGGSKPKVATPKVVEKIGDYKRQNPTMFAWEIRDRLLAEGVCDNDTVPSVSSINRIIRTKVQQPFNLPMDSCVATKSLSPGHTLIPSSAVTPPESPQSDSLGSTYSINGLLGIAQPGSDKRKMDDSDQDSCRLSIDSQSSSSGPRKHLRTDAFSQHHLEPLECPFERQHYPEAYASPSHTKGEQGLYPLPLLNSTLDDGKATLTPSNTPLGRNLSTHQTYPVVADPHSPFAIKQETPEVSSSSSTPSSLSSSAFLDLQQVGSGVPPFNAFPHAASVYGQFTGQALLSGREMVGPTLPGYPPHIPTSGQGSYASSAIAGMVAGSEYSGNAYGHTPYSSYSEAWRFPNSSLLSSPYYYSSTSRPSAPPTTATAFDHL

[5] = target: E3 ubiquitin-protein ligase UHRF1 (Homo sapiens, UniProt Q96T88); experiment: Counterscreen for inhibitors of 5-meCpG-binding domain protein 2 (MBD2): TRFRET-based biochemical high throughput dose response assay to identify inhibitors of binding of ubiquitin-like with PHD and ring finger domains 1 (UHRF1) to methylated oligonucleotide.
Sequence of E3 ubiquitin-protein ligase UHRF1 (Q96T88 whole entry, the tested form may be a part): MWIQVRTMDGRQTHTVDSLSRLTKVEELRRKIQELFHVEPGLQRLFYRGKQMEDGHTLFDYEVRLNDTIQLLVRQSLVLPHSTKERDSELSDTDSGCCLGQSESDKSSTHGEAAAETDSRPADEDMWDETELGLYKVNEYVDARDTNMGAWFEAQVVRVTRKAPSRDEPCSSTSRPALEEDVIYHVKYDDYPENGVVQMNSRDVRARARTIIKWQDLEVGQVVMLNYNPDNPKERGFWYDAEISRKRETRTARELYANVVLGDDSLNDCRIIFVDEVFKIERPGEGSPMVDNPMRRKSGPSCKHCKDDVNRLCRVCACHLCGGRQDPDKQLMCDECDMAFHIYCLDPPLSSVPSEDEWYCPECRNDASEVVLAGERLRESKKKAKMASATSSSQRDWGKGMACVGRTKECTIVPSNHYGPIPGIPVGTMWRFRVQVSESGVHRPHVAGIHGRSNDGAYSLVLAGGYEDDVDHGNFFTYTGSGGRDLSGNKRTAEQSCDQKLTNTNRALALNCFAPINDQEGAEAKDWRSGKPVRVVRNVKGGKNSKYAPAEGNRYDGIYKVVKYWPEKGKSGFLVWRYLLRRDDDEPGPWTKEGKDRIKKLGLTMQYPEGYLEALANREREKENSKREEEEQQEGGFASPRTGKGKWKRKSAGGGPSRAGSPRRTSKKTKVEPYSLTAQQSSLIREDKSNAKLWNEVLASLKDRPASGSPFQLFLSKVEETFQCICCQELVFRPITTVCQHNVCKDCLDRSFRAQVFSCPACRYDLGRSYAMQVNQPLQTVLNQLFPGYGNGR

[6] = target: Protein Tat (Human immunodeficiency virus type 1 group M subtype B (isolate HXB2)(HIV-1), UniProt P04608); type: functional;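 also: tat binding to TAR RNA read out by fluorescence polarization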
Sequence of Protein Tat (P04608 whole entry): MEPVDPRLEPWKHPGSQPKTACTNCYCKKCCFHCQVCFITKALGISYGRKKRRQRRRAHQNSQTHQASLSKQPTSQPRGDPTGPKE

[7] = target: G-protein coupled receptor 183 (Homo sapiens, UniProt P32249); experiment: SAR confirmation of small molecule antagonists of the EBI2 receptor via a luminescent beta-arrestin assa.; type: functional
Sequence of G-protein coupled receptor 183 (P32249 whole entry): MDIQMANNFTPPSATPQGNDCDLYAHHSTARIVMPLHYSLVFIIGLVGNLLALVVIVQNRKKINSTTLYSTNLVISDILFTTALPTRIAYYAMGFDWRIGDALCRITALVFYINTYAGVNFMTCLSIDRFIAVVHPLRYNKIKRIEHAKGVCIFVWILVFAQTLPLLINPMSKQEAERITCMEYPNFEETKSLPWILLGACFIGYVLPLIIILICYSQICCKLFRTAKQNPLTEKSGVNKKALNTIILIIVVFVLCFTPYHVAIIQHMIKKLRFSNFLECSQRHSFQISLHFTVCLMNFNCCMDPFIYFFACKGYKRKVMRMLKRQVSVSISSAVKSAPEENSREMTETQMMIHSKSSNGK

[8] = P. falciparum 3D7-ScDHODH growth inhibitors, dose response, SYBR Green, dry powder samples (AID 1159570); type: functional, cell-based;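 also: parasite growth measured after 72 hours of compound exposure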
[9] = P. falciparum Dd2 growth inhibitors, dose response, SYBR Green, cherry-picked samples (AID 1159567); type: functional, cell-based
[10] = P. falciparum Dd2 growth inhibitors, dose response, SYBR Green, dry powder samples (AID 1159566); type: functional, cell-based;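 also: potency for growth inhibition with lower SYBR green DNA signal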
[11] = P. falciparum ATP4 D1247Y mutant growth inhibitors, dose response, NITD609-resistant line, SYBR Green, dry powder (AID 1159571); type: functional, cell-based;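 also: parasites synchronized at ring stage by sorbitol before testing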
[12] = half-maximal inhibitory concentration for glucagon-like peptide-1 release, STC-1 cell line, dose-response (AID 1117345); type: functional, cell-based
[13] = Glucagon-like peptide 1 release potency, NCI-H716 cell line, dose-response, half-maximal inhibitory concentration (AID 1117344); type: functional, cell-based
[14] = Dose-response inhibition of insulin secretion in a rat insulinoma line at 5 mM glucose (AID 1117331); type: functional, cell-based; details: INS-1E
[15] = target: Nonstructural protein 1 (Influenza A virus, UniProt Q194T2); type: functional, Influenza A virus (A/California/07/2009(H1N1))
Sequence of Nonstructural protein 1 (Q194T2 whole entry): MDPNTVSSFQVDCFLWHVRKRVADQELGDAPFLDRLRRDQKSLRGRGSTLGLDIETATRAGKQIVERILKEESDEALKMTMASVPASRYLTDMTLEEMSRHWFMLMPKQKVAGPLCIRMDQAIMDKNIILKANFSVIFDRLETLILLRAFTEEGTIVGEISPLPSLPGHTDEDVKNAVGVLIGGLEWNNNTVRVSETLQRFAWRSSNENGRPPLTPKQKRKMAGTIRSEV

[16] = target: T2, Protein skinhead-1 (Caenorhabditis elegans, UniProt P34707); type: functional
T2 sequence (P34707 whole entry): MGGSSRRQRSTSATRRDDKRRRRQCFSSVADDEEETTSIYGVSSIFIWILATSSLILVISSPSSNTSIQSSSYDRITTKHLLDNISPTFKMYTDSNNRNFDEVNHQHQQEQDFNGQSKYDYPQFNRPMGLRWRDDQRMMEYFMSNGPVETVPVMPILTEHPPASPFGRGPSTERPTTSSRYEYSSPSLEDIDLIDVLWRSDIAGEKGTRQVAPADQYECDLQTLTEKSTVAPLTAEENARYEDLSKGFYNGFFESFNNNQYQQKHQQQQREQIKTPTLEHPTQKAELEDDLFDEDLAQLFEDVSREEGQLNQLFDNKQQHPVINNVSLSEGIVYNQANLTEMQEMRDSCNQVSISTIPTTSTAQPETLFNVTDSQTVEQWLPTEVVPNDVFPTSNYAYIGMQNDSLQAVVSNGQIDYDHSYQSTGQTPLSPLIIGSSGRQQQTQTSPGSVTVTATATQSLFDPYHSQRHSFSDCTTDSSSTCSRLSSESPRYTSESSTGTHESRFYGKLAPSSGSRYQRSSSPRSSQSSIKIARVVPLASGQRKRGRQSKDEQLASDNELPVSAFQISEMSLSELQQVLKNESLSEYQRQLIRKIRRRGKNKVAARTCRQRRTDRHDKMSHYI

[17] = THP-1 cell cytotoxicity, dose response, cytotoxicity control for Vif-APOBEC3G degradation inhibitor project, THP-1 cells (AID 1117359); type: functional; details: Human immunodeficiency virus 1, THP-1
[18] = target: Glutathione-S-transferase (Schistosoma japonicum, UniProt Q26513); experiment: biotin-GST/anti-GST TR-FRET signal inhibitors, dose response, artefact control for Vif-APOBEC3G degradation inhibitor project, biochemical (AID 1117362); type: functional
Sequence of Glutathione-S-transferase (Q26513 whole entry): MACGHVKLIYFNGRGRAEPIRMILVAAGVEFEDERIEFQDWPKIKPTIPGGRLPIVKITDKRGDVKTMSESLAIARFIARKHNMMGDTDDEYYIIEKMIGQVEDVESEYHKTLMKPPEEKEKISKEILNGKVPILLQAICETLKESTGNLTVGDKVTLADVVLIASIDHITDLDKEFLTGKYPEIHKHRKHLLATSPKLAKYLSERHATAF

SMILES: CN(C)CCNc1ccc(CO)c2sc3ccc(O)cc3c(=O)c12
- AC50 [1]: 1.82 µM (active)
- CC50 [2]: 36.1 µM (active)
- IC50 [3]: 20.2 µM (active)
- AC50 [4]: 5.72 µM (active)
- IC50 [5]: > 43.8 µM (inactive)

SMILES: CC1CCCC(/C=N/c2ccc(O)cc2)=C1O (stereo unspecified)
- IC50 [3]: 26.9 µM (active)
- IC50 [6]: 30.8 µM (inconclusive)

SMILES: O=C(/C=C/c1ccc(Br)cc1)N1CCN(C(=O)c2cccc(B(O)O)c2)CC1
- IC50 [7]: 0.0287 µM (active)

SMILES: COc1cccc(S(=O)(=O)N2CCN(C(=O)/C=C/c3ccc(F)cc3)CC2)c1
- IC50 [7]: 0.0521 µM (active)

SMILES: COc1ccc2c3c([nH]c2c1)[C@H](CO)N(C(=O)C1CCOCC1)CC31CCN(Cc2nccs2)CC1
- AC50 [8]: 0.387 µM (active)
- AC50 [9]: 2.43 µM (active)
- AC50 [10]: 0.467 µM (active)
- AC50 [11]: 0.384 µM (active)

SMILES: COc1cc2nc(N3CCN(C(=O)C4COc5ccccc5O4)CC3)nc(N)c2cc1OC (stereo unspecified) [DOXAZOSIN MESYLATE]
- IC50 [12]: 10.7 µM (inactive)
- IC50 [13]: > 40 µM (inactive)

SMILES: CCOC(=O)c1ccccc1O [ETHYL SALICYLATE]
- IC50 [14]: > 33.3 µM (inactive)
- IC50 [12]: > 40 µM (inactive)
- IC50 [13]: > 40 µM (inactive)

SMILES: COc1ccc(Cl)cc1C(=O)NCCc1ccc(S(=O)(=O)NC(=O)NC2CCCCC2)cc1 [GLYBURIDE]
- IC50 [14]: 0.00808 µM (active)

SMILES: N=C1C=CC(=C(c2ccc(N)cc2)c2ccc(N)cc2)C=C1 [PARAROSANILINE]
- IC50 [15]: 6.87 µM (active)
- IC50 [16]: 13.4 µM (active)
- CC50 [2]: 50.3 µM (active)
- IC50 [3]: 98 µM (active)
- IC50 [6]: > 100 µM (active)
- CC50 [17]: 7.58 µM (active)
- IC50 [18]: 4.08 µM (active)

— ChEMBL document CHEMBL1201862, “PubChem BioAssay data set” (2004)
